The results in this text go back to patent US10851108B2, “Substituted bicyclic heterocyclic compounds” (BRISTOL-MYERS SQUIBB COMPANY, priority 2016, dated 2020).

By IC50 is commonly meant the concentration that inhibits the measured activity by half.

Chain of hROMK (human Kir1.1) (P48048 whole entry): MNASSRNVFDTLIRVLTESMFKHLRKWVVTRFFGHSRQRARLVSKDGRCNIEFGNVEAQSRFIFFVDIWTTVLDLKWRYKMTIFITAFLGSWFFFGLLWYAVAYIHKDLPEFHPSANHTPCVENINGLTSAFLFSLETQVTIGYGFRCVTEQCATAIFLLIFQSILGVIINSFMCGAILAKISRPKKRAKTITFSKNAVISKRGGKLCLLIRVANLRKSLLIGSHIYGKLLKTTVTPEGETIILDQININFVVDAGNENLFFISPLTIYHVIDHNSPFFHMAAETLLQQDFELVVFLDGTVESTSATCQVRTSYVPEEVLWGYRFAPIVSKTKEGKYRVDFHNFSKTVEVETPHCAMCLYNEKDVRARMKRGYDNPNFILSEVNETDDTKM

The assay addresses hROMK (human Kir1.1) (Homo sapiens (Human), UniProt P48048). As to the kind of experiment: Thallium Flux Assay. As to conditions: CHO T-Rex hROMK stable cell line, 10-point concentration response; read-out: hROMK Th+ Flux IC50. The format is cell-based. The protocol:
Solutions and reagents: Thallium flux assay was performed using FluxOR kit (F10017, Life Technologies). Loading buffer, assay buffer and stimulus buffer were prepared using kit components. HBSS (Hank's balanced salt solution, Cat #14025-092) was purchased separately from Life Technologies.
To prepare 10 ml of loading buffer: 10 μl of FluxOR dye (reconstituted in DMSO) was first added to 100 μl of powerload concentrate and this mix along with 100 μl of Probenicid (100×) was then added to 9.79 ml of HBSS. Assay buffer (10 ml) was prepared by addition of 2 ml of FluxOR chloride free buffer (5×), 100 μl of Probenicid (100×), and 0.2 ml of Ouabain (13.77 mM) to 7.7 ml of deionized water. Stimulus buffer was composed of 15 mM Tl2SO4, 0.75 mM K2SO4 in FluxOR chloride free buffer (diluted to 1× using deionized water). The final concentration of Tl2SO4 and K2SO4 in the assay plate was 3 mM and 0.15 mM, respectively.
Plating and induction of cells: The CHO T-Rex hROMK (human Kir1.1) stable cell line was maintained in Ham's F12 media supplemented with 10% FBS, 1% Penicillin-Streptomycin, 500 μg/ml Zeocin and 10 μg/ml Blasticidin at 37° C. in a 5% CO2 incubator. One day before the experiment, the cells were dissociated by incubation with Versene solution (15040-066, Life Technologies) for 10 minutes at 37° C. followed by addition of growth media. The cell suspension was centrifuged at 1200 rpm for 5 min. After discarding the supernatant, the cells were resuspended in fresh growth media and cell concentration was determined using a hemocytometer. Next, 0.5 μg/ml of Doxycycline was added to the cell suspension to induce hROMK channel expression and 50 μl (10,000 cells/well) of cell suspension was added to each well of a poly-D lysine coated 384 well black, optically clear bottom plate (6007718, Perkin Elmer). The assay plate was kept at 37° C. in a 5% CO2 incubator.
Assay protocol: On the day of experiment, media was removed and loading buffer was added (30 μl/well) to the assay plate. The cells were incubated in the loading buffer for 30 minutes at 37° C. The loading buffer was then replaced by assay buffer (30 μl/well) followed by addition of test compounds or controls. The cells were incubated with compounds for 30 minutes and the plate was then mounted on FlexStation (Molecular Devices) for fluorescence read out with excitation and emission wavelengths at 488 and 525 nm, respectively. Each well was read for 90 sec at 2 sec interval and the stimulus buffer was added after 20 seconds of baseline recording. The final DMSO concentration was either 0.5 or 1% in the assay plate. […] controls were defined by addition of DMSO or 3 μM of a standard ROMK inhibitor, respectively, to the wells instead of a test compound.
A 10-point concentration response curve was used to estimate the IC50 value of test compounds.
The data in Table 3 is reported with two significant figures.
Regarding `Cc1c(CCN2CCc3nc(Nc4ccc(C#N)c(F)c4)ncc3C2)ccc2c1COC2=O` [Example 27, 2-fluoro-4-((6-(2-(4-methyl-1-oxo-1,3-dihydroisobenzofuran-5-yl)ethyl)-5,6,7,8-tetrahydropyrido[4,3-d]pyrimidin-2-yl)amino) benzonitrile], the IC50 was found to be 200 nM.

Regarding `Cc1c(C(O)CN2CCc3nc(Nc4ccc5oc(=O)n(C)c5c4)ncc3C2)ccc2c1COC2=O` (single isomer, unassigned) [Example 62-I, 5-((6-(2-hydroxy-2-(4-methyl-1-oxo-1,3-dihydroisobenzofuran-5-yl)ethyl)-5,6,7,8-tetrahydropyrido[4,3-d]pyrimidin-2-yl)amino)-3-methylbenzo[d] oxazol-2(3H)-one], the concentration for half-maximal inhibition (IC50) amounted to 1030 nM.

For `Cc1c(CN2CCc3cc(Nc4ccc(C#N)c(F)c4)ccc3C2)ccc2c1COC2=O` [Example 30, 2-fluoro-4-((2-((4-methyl-1-oxo-1,3-dihydroisobenzofuran-5-yl)methyl)-1,2,3,4-tetrahydroisoquinolin-6-yl)amino)benzonitrile], the IC50 worked out at 810 nM.

In the case of `Cc1c(C(CO)N2CCc3nc(-n4cc(C#N)c5ccccc54)ncc3C2)ccc2c1COC2=O` (single isomer, unassigned) [Example 9-II, 1-(6-(2-hydroxy-1-(4-methyl-1-oxo-1,3-dihydroisobenzofuran-5-yl)ethyl)-5,6,7,8-tetrahydropyrido[4,3-d]pyrimidin-2-yl)-1H-indole-3-carbonitrile], the IC50 was found to be 1800 nM.

As for `Cn1c(=O)oc2ccc(CN3CCc4cc(Nc5ccc(C#N)c(F)c5)ccc4C3)cc21` [Example 48, 2-fluoro-4-((2-((3-methyl-2-oxo-2,3-dihydrobenzo[d]oxazol-5-yl)methyl)-1,2,3,4-tetrahydroisoquinolin-6-yl)amino)benzonitrile], the IC50 stood at 600 nM.

With `Cc1c(C(O)CN2CCc3nc(-n4ncc5c(C#N)ccnc54)ncc3C2)ccc2c1COC2=O` (single isomer, unassigned) [Example 35-I, 1-(6-(2-hydroxy-2-(4-methyl-1-oxo-1,3-dihydroisobenzofuran-5-yl)ethyl)-5,6,7,8-tetrahydropyrido[4,3-d]pyrimidin-2-yl)-1H-pyrazolo[3,4-b]pyridine-4-carbonitrile], the IC50 turned out to be 800 nM.

For the molecule `Cc1c(CN2CCc3nc(Nc4ccc5c(c4C)COC5=O)ncc3C2)ccc2c1COC2=O` [Example 5, 4-methyl-5-((2-((4-methyl-1-oxo-1,3-dihydroisobenzofuran-5-yl)amino)-7,8-dihydropyrido[4,3-d]pyrimidin-6(5H)-yl)methyl)isobenzofuran-1(3H)-one], the IC50 was 790 nM.

`Cc1c(C(CO)N2CCc3nc(Nc4ccc(C#N)c(F)c4)ncc3C2)ccc2c1COC2=O` (single isomer, unassigned) [Example 29-II, 2-fluoro-4-((6-(2-hydroxy-1-(4-methyl-1-oxo-1,3-dihydroisobenzofuran-5-yl)ethyl)-5,6,7,8-tetrahydropyrido [4,3-d]pyrimidin-2-yl)amino)benzonitrile]: the concentration for half-maximal inhibition (IC50) was determined as 2100 nM.

`Cc1c(C(O)CN2CCc3nc(-n4ccc5c(C#N)cncc54)ncc3C2)ccc2c1COC2=O` (single isomer, unassigned) [Example 42-II, 1-(6-(2-hydroxy-2-(4-methyl-1-oxo-1,3-dihydroisobenzofuran-5-yl)ethyl)-5,6,7,8-tetrahydropyrido[4,3-d]pyrimidin-2-yl)-1H-pyrrolo[2,3-c]pyridine-4-carbonitrile]: the IC50 is 210 nM.

`N#Cc1ccc2c(ccn2-c2ncc3c(n2)CCN(CC(O)c2ccc4c(c2)COC4=O)C3)c1` (single isomer, unassigned) [Example 17-I, 1-(6-(2-hydroxy-2-(1-oxo-1,3-dihydro-isobenzofuran-5-yl)ethyl)-5,6,7,8-tetrahydropyrido[4,3-d]pyrimidin-2-yl)-1H-indole-5-carbonitrile]: the IC50 was determined as 340 nM.

As to `Cc1c(C(CO)N2CCc3cc(Nc4ccc(C#N)c(F)c4)ccc3C2)ccc2c1COC2=O` (single isomer, unassigned) [Example 33-II, 2-fluoro-4-((2-(2-hydroxy-1-(4-methyl-1-oxo-1,3-dihydroisobenzofuran-5-yl)ethyl)-1,2,3,4-tetrahydroisoquinolin-6-yl)amino) benzonitrile], the IC50 is 1800 nM.

In the case of `N#Cc1cnc2c(ccn2-c2ncc3c(n2)CCN(Cc2ccc4c(c2)COC4=O)C3)c1` [Example 46, 1-(6-((1-oxo-1,3-dihydroisobenzofuran-5-yl)methyl)-5,6,7,8-tetrahydropyrido[4,3-d]pyrimidin-2-yl)-1H-pyrrolo[2,3-b] pyridine-5-carbonitrile], the IC50 is 1500 nM.

On to `Cc1c(N2CCc3cc(NCc4ccc(C#N)c(F)c4)ccc3C2)ccc2c1COC2=O` [Example 10, 2-fluoro-4-(((2-(4-methyl-1-oxo-1,3-dihydroisobenzofuran-5-yl)-1,2,3,4-tetrahydroisoquinolin-6-yl)amino)methyl)benzonitrile], for which the IC50 amounted to 4600 nM.

Turning to `CCOC(=O)c1cnc2cnn(-c3ncc4c(n3)CCN(CC(O)c3ccc5c(c3C)COC5=O)C4)c2c1` (single isomer, unassigned) [Example 51-I, ethyl 1-(6-(2-hydroxy-2-(4-methyl-1-oxo-1,3-dihydroisobenzofuran-5-yl)ethyl)-5,6,7,8-tetrahydropyrido[4,3-d]pyrimidin-2-yl)-1H-pyrazolo[4,3-b]pyridine-6-carboxylate], the IC50 was 495 nM.

Consider `Cc1c(CN2CCc3cc(Nc4cccc(F)c4C#N)ccc3C2)ccc2c1COC2=O` [Example 39, 2-fluoro-6-((2-((4-methyl-1-oxo-1,3-dihydroisobenzofuran-5-yl)methyl)-1,2,3,4-tetrahydroisoquinolin-6-yl)amino)benzonitrile], for which the IC50 stood at 550 nM.

Take `Cc1c(C(O)CN2CCc3nc(Nc4ccc(-n5cnnn5)cn4)ncc3C2)ccc2c1COC2=O` (single isomer, unassigned) [Example 63-I, 5-(2-(2-((5-(1H-tetrazol-1-yl)pyridine-2-yl)amino)-7,8-dihydropyrido[4,3-d]pyrimidin-6(5H)-yl)-1-hydroxyethyl)-4-methylisobenzofuran-1(3H)-one]: the IC50 worked out at 1240 nM.

In the case of `Cc1c(C(O)CN2CCc3nc(-n4cc(C#N)c5ccccc54)ncc3C2)ccc2c1COC2=O` (single isomer, unassigned) [Example 8-II, 1-(6-(2-hydroxy-2-(4-methyl-1-oxo-1,3-dihydroisobenzofuran-5-yl)ethyl)-5,6,7,8-tetrahydropyrido[4,3-d]pyrimidin-2-yl)-1H-indole-3-carbonitrile], the IC50 turned out to be 83 nM.

Regarding `Cc1c(C(O)CN2CCc3nc(-n4ccc5c(C#N)ccnc54)ncc3C2)ccc2c1COC2=O` (single isomer, unassigned) [Example 19-II, 1-(6-(2-hydroxy-2-(4-methyl-1-oxo-1,3-dihydroisobenzofuran-5-yl)ethyl)-5,6,7,8-tetrahydropyrido[4,3-d]pyrimidin-2-yl)-1H-pyrrolo[2,3-b]pyridine-4-carbonitrile], the IC50 worked out at 1900 nM.

For `Cc1c(CN2CCc3cc(Nc4ccc5oc(=O)n(C)c5c4)ccc3C2)ccc2c1COC2=O` [Example 14, 3-methyl-5-((2-((4-methyl-1-oxo-1,3-dihydroisobenzofuran-5-yl)methyl)-1,2,3,4-tetrahydroisoquinolin-6-yl)amino)benzo[d]oxazol-2(3H)-one], the IC50 turned out to be 320 nM.

On to `Cc1c(CN2CCc3nc(-n4ncc5cc(C#N)ccc54)ncc3C2)ccc2c1COC2=O` [Example 13, 1-(6-((4-methyl-1-oxo-1,3-dihydro-isobenzofuran-5-yl)methyl)-5,6,7,8-tetrahydropyrido[4,3-d]pyrimidin-2-yl)-1H-indazole-5-carbonitrile], for which the IC50 was 750 nM.

Regarding `Cc1c(C(O)CN2CCc3nc(-n4cnc5cccnc54)ncc3C2)ccc2c1COC2=O` (single isomer, unassigned) [Example 55-I, 5-(2-(2-(3H-imidazo[4,5-b]pyridin-3-yl)-7,8-dihydropyrido[4,3-d]pyrimidin-6(5H)-yl)-1-hydroxyethyl)-4-methylisobenzofuran-1(3H)-one], the IC50 is 1490 nM.
